# In patent US5288720A, “Angiotensin II receptor blocking 2,3,6 substituted quinazolinones” (American Cyanamid Company, priority 1993, dated 1994):
# Test system: ANGIOTENSIN II VASOPRESSOR RESPONSE
# Assay: AII Challenge: blockade of angiotensin II vasopressor response in conscious SHR
# Assay type: in vivo, rat (Conscious Male Okamoto-Aoki SHR)
# Conditions: SHR n=2
# Procedure, shortened: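 Conscious male Okamoto-Aoki SHR (16-20 weeks, ~330 g) cannulated in aorta and vena cava under local procaine; angiotensin II (human) 0.05 and 0.1 ug/kg i.v. given before and at 30-300 min after test compound i.v., i.p. or orally. Rise in systolic pressure (mmHg) expressed as % blockade versus each rat's predose response.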
# [1] = 3 mg/kg i.v., AII 0.05 mcg/kg IV, 30 min post dose
# [2] = 3 mg/kg i.v., AII 0.05 mcg/kg IV, 60 min post dose
# [3] = 3 mg/kg i.v., AII 0.05 mcg/kg IV, 90 min post dose
# [4] = 3 mg/kg i.v., AII 0.05 mcg/kg IV, 120 min post dose
# [5] = 3 mg/kg i.v., AII 0.05 mcg/kg IV, 180 min post dose
# [6] = 3 mg/kg i.v., AII 0.05 mcg/kg IV, 240 min post dose
# [7] = 3 mg/kg i.v., AII 0.05 mcg/kg IV, 300 min post dose
# [8] = 3 mg/kg i.v., AII 0.1 mcg/kg IV, 30 min post dose
# [9] = 3 mg/kg i.v., AII 0.1 mcg/kg IV, 60 min post dose
# [10] = 3 mg/kg i.v., AII 0.1 mcg/kg IV, 120 min post dose
# [11] = 3 mg/kg i.v., AII 0.1 mcg/kg IV, 180 min post dose
# [12] = 3 mg/kg i.v., AII 0.1 mcg/kg IV, 240 min post dose
# [13] = 3 mg/kg i.v., AII 0.1 mcg/kg IV, 300 min post dose
# [14] = 3 mg/kg p.o., AII 0.05 mcg/kg IV, 30 min post dose
# [15] = 3 mg/kg p.o., AII 0.05 mcg/kg IV, 60 min post dose
# [16] = 3 mg/kg p.o., AII 0.05 mcg/kg IV, 90 min post dose
# [17] = 3 mg/kg p.o., AII 0.05 mcg/kg IV, 120 min post dose
# [18] = 3 mg/kg p.o., AII 0.05 mcg/kg IV, 180 min post dose
# [19] = 3 mg/kg p.o., AII 0.05 mcg/kg IV, 240 min post dose
# [20] = 3 mg/kg p.o., AII 0.1 mcg/kg IV, 30 min post dose
# [21] = 3 mg/kg p.o., AII 0.1 mcg/kg IV, 60 min post dose
# [22] = 3 mg/kg p.o., AII 0.1 mcg/kg IV, 90 min post dose
# [23] = 3 mg/kg p.o., AII 0.1 mcg/kg IV, 120 min post dose
# [24] = 3 mg/kg p.o., AII 0.1 mcg/kg IV, 180 min post dose
# [25] = 3 mg/kg p.o., AII 0.1 mcg/kg IV, 240 min post dose
# [26] = 10 mg/kg p.o., AII 0.05 mcg/kg IV, 30 min post dose
# [27] = 10 mg/kg p.o., AII 0.05 mcg/kg IV, 60 min post dose
# [28] = 10 mg/kg p.o., AII 0.05 mcg/kg IV, 90 min post dose
# [29] = 10 mg/kg p.o., AII 0.05 mcg/kg IV, 120 min post dose
# [30] = 10 mg/kg p.o., AII 0.05 mcg/kg IV, 180 min post dose
# [31] = 10 mg/kg p.o., AII 0.05 mcg/kg IV, 240 min post dose
# [32] = 10 mg/kg p.o., AII 0.05 mcg/kg IV, 300 min post dose
# [33] = 10 mg/kg p.o., AII 0.1 mcg/kg IV, 30 min post dose
# [34] = 10 mg/kg p.o., AII 0.1 mcg/kg IV, 60 min post dose
# [35] = 10 mg/kg p.o., AII 0.1 mcg/kg IV, 90 min post dose
# [36] = 10 mg/kg p.o., AII 0.1 mcg/kg IV, 120 min post dose
# [37] = 10 mg/kg p.o., AII 0.1 mcg/kg IV, 180 min post dose
# [38] = 10 mg/kg p.o., AII 0.1 mcg/kg IV, 240 min post dose
# [39] = 10 mg/kg p.o., AII 0.1 mcg/kg IV, 300 min post dose
compound,measurement,setting,value
"CCCCc1nc2ccc(C(O)C3CCN(C)C3=O)cc2c(=O)n1Cc1ccc(-c2ccccc2-c2nn[nH]n2)cc1 (single isomer, unassigned; isomer 2) [Example 33, 2-Butyl-6-[hydroxy(1-methyl-2-oxo-3-pyrrolidinyl)methyl-3-[[2'-(1H-tetrazol-5-yl)[1,1'-biphenyl]-4-yl]methyl]-4(3H)-quinazolinone isomer 2]",% Inhibition of AII vasopressor response,[1],100%
same,Average Change (systolic blood pressure response to AII),[1],0 mmHg
same,% Inhibition of AII vasopressor response,[2],100%
same,Average Change (systolic blood pressure response to AII),[2],0 mmHg
same,% Inhibition of AII vasopressor response,[3],100%
same,Average Change (systolic blood pressure response to AII),[3],0 mmHg
same,% Inhibition of AII vasopressor response,[4],100%
same,Average Change (systolic blood pressure response to AII),[4],0 mmHg
same,% Inhibition of AII vasopressor response,[5],81%
same,Average Change (systolic blood pressure response to AII),[5],7.5 mmHg
same,% Inhibition of AII vasopressor response,[6],56%
same,Average Change (systolic blood pressure response to AII),[6],17.5 mmHg
same,% Inhibition of AII vasopressor response,[7],44%
same,Average Change (systolic blood pressure response to AII),[7],22.5 mmHg
same,% Inhibition of AII vasopressor response,[8],86%
same,Average Change (systolic blood pressure response to AII),[8],7.5 mmHg
same,% Inhibition of AII vasopressor response,[9],89%
same,Average Change (systolic blood pressure response to AII),[9],6 mmHg
same,Average Change (systolic blood pressure response to AII),"3 mg/kg i.v., AII 0.1 mcg/kg IV, 90 min post dose",7.5 mmHg
same,% Inhibition of AII vasopressor response,[10],81%
same,Average Change (systolic blood pressure response to AII),[10],10 mmHg
same,% Inhibition of AII vasopressor response,[11],52%
same,Average Change (systolic blood pressure response to AII),[11],25 mmHg
same,% Inhibition of AII vasopressor response,[12],33%
same,Average Change (systolic blood pressure response to AII),[12],35 mmHg
same,% Inhibition of AII vasopressor response,[13],38%
same,Average Change (systolic blood pressure response to AII),[13],32.5 mmHg
same,% Inhibition of AII vasopressor response,[14],80%
same,Average Change (systolic blood pressure response to AII),[14],10 mmHg
same,% Inhibition of AII vasopressor response,[15],65%
same,Average Change (systolic blood pressure response to AII),[15],17.5 mmHg
same,% Inhibition of AII vasopressor response,[16],50%
same,Average Change (systolic blood pressure response to AII),[16],25 mmHg
same,% Inhibition of AII vasopressor response,[17],63%
same,Average Change (systolic blood pressure response to AII),[17],18.5 mmHg
same,% Inhibition of AII vasopressor response,[18],35%
same,Average Change (systolic blood pressure response to AII),[18],32.5 mmHg
same,% Inhibition of AII vasopressor response,[19],30%
same,Average Change (systolic blood pressure response to AII),[19],35 mmHg
same,% Inhibition of AII vasopressor response,[20],63%
same,Average Change (systolic blood pressure response to AII),[20],17.5 mmHg
same,% Inhibition of AII vasopressor response,[21],47%
same,Average Change (systolic blood pressure response to AII),[21],25 mmHg
same,% Inhibition of AII vasopressor response,[22],37%
same,Average Change (systolic blood pressure response to AII),[22],30 mmHg
same,% Inhibition of AII vasopressor response,[23],53%
same,Average Change (systolic blood pressure response to AII),[23],22.5 mmHg
same,% Inhibition of AII vasopressor response,[24],21%
same,Average Change (systolic blood pressure response to AII),[24],37.5 mmHg
same,% Inhibition of AII vasopressor response,[25],0%
same,Average Change (systolic blood pressure response to AII),[25],47.5 mmHg
"CCCCc1nc2ccc(C(O)C3CCCN(C)C3=O)cc2c(=O)n1Cc1ccc(-c2ccccc2-c2nn[nH]n2)cc1 (single isomer, unassigned; isomer 2) [Example 38, 2-Butyl-6-hydroxy(1-methyl-2-oxo-3-piperidinyl)methyl-3-[[2'-(1H-tetrazol-5-yl)[1,1'-biphenyl]-4-yl]methyl-4(3H)-quinazolinone isomer 2]",% Inhibition of AII vasopressor response,[14],70%
same,Average Change (systolic blood pressure response to AII),[14],7.5 mmHg
same,% Inhibition of AII vasopressor response,[15],50%
same,Average Change (systolic blood pressure response to AII),[15],12.5 mmHg
same,% Inhibition of AII vasopressor response,[16],46%
same,Average Change (systolic blood pressure response to AII),[16],13.5 mmHg
same,% Inhibition of AII vasopressor response,[17],70%
same,Average Change (systolic blood pressure response to AII),[17],7.5 mmHg
same,% Inhibition of AII vasopressor response,[18],70%
same,Average Change (systolic blood pressure response to AII),[18],7.5 mmHg
same,% Inhibition of AII vasopressor response,[19],40%
same,Average Change (systolic blood pressure response to AII),[19],15 mmHg
same,% Inhibition of AII vasopressor response,[20],57%
same,Average Change (systolic blood pressure response to AII),[20],15 mmHg
same,% Inhibition of AII vasopressor response,[21],20%
same,Average Change (systolic blood pressure response to AII),[21],27.5 mmHg
same,% Inhibition of AII vasopressor response,[22],32%
same,Average Change (systolic blood pressure response to AII),[22],23.5 mmHg
same,% Inhibition of AII vasopressor response,[23],52%
same,Average Change (systolic blood pressure response to AII),[23],16.5 mmHg
same,% Inhibition of AII vasopressor response,[24],28%
same,Average Change (systolic blood pressure response to AII),[24],25 mmHg
same,% Inhibition of AII vasopressor response,[25],16%
same,Average Change (systolic blood pressure response to AII),[25],29 mmHg
same,% Inhibition of AII vasopressor response,[26],50%
same,Average Change (systolic blood pressure response to AII),[26],25 mmHg
same,% Inhibition of AII vasopressor response,[27],40%
same,Average Change (systolic blood pressure response to AII),[27],30 mmHg
same,% Inhibition of AII vasopressor response,[28],25%
same,Average Change (systolic blood pressure response to AII),[28],37.5 mmHg
same,% Inhibition of AII vasopressor response,[29],50%
same,Average Change (systolic blood pressure response to AII),[29],25 mmHg
same,% Inhibition of AII vasopressor response,[30],5%
same,Average Change (systolic blood pressure response to AII),[30],47.5 mmHg
same,% Inhibition of AII vasopressor response,[31],-5%
same,Average Change (systolic blood pressure response to AII),[31],52.5 mmHg
same,% Inhibition of AII vasopressor response,[32],0%
same,Average Change (systolic blood pressure response to AII),[32],50 mmHg
same,% Inhibition of AII vasopressor response,[33],35%
same,Average Change (systolic blood pressure response to AII),[33],37.5 mmHg
same,% Inhibition of AII vasopressor response,[34],39%
same,Average Change (systolic blood pressure response to AII),[34],35 mmHg
same,% Inhibition of AII vasopressor response,[35],35%
same,Average Change (systolic blood pressure response to AII),[35],37.5 mmHg
same,% Inhibition of AII vasopressor response,[36],43%
same,Average Change (systolic blood pressure response to AII),[36],32.5 mmHg
same,% Inhibition of AII vasopressor response,[37],13%
same,Average Change (systolic blood pressure response to AII),[37],50 mmHg
same,% Inhibition of AII vasopressor response,[38],22%
same,Average Change (systolic blood pressure response to AII),[38],45 mmHg
same,% Inhibition of AII vasopressor response,[39],4%
same,Average Change (systolic blood pressure response to AII),[39],55 mmHg
